# According to patent US12611387B2, “Compound and composition for inducing neuroprotection” (REST THERAPEUTICS, priority 2020, dated 2026):
# How the values were obtained:
# Format in all cases: in vivo
# non-intoxicated mice = experiment: Passive avoidance test, amnestic effect in non-intoxicated mice; conditions: 10 mg/Kg i.p.
# Excerpt: (§1) This test measures non-spatial (contextual) long-term memory. The apparatus used for this test was a box with two compartments (15×20×15 cm high), one illuminated with white PVC walls and the other in the dark with black PVC walls and a grid floor. A guillotine door separated the compartments. A 60 W lamp was positioned 40 cm above the box and illuminated the white compartment. Electric shocks (0.3 mA for 3 s) could be delivered to the grid floor using a generator (Lafayette Instruments, Lafayette, USA). The test comprised a training session and a test session. The guillotine door was closed during the training session. Each mouse was placed in the white compartment. After 5 seconds, the door was raised. When the mouse entered the darkened compartment and placed all four feet in contact with the grid floor, the door was closed and the electric shocks were delivered for 3 seconds. The time taken by the mouse to re-enter the darkened compartment (STL-Tg) and the number of vocalizations were recorded. The test session was conducted 24 hours after the training session. Each mouse was placed back into the illuminated white compartment. After 5 s the door was raised, the step-through latency (STL-R), i.e. the time it took the mouse to enter the darkened compartment, was measured. The maximum duration was 300 s. Mice with a STL-Tg>30 s or a STL-Tg and a STL-R<10 s were not considered for the test. […]
# [1] = tested on: Aβ25-35 oligomer-intoxicated mice; experiment: Y-maze test, symptomatic treatment; conditions: doses 0.1; 0.3; 1.0; 3 and 10 mg/Kg i.p., symptomatic design
# Description: The test compounds were tested for their ability to decrease the cognitive symptoms of Aβ25-35 oligomer-induced neurodegeneration, i.e. their ability to provide symptomatic anti-amnestic treatment (FIGS. 1A and 1B). In brief, to test the symptomatic effect of the test compounds, they were administered 8 days after the icy injection of the Aβ25-35 oligomers, 30 minutes before the YMT and PAT memory tests were conducted or 30 minutes before the test, but after the training session, in the case of the MWT or ORT (FIG. 1A). […]
# The spontaneous alternation test was used to assess spatial working memory (very short-term memory) in rodents. […] The mouse's entries into each arm, including the arm at whose end it was placed, are recorded. […] The number of maximum alternations is thus the total number of entries into each arm minus 2 and the percentage of alternation was calculated according to the formula: % Alt=number of actual alternations/maximum number of alterations×100
# The parameters measured included the percentage of alternations (memory index) and the total number of entries into the arms of the maze (exploration index, Maurice et al., 1994, 1996; Meunier et al., 2006, 2013; Villard et al., 2009, 2011). […]
# [2] = tested on: Aβ25-35 oligomer-intoxicated mice; experiment: Passive avoidance test, neuroprotection design; conditions: doses 0.03; 0.1; 0.3; 1.0 and 3 mg/Kg i.p., neuroprotection design (not shown)
# Description: The neuroprotective effect of the compounds, i.e. the ability thereof to protect cells from Aβ25-35 oligomer neurotoxicity and neurodegeneration, is also tested (FIG. 10). The test compounds are thus administered on the same day as the injection of the Aβ25-35 oligomers and are continued to be administered on a daily basis up to day 7 after the injection of the oligomers, at which time the mice are subjected to the YMT, PAT, MWT or ORT. The brain's anatomy is analysed and neuronal cells are counted by immunohistochemistry on mice sacrificed at D13. The biochemical analyses for the quantification of markers of oxidative stress and apoptosis were carried out at D16 on a group of mice that had been subjected to the WMT (FIG. 10).
# This test measures non-spatial (contextual) long-term memory. The apparatus used for this test was a box with two compartments (15×20×15 cm high), one illuminated with white PVC walls and the other in the dark with black PVC walls and a grid floor. A guillotine door separated the compartments. A 60 W lamp was positioned 40 cm above the box and illuminated the white compartment. […] The time taken by the mouse to re-enter the darkened compartment (STL-Tg) and the number of vocalizations were recorded. […] After 5 s the door was raised, the step-through latency (STL-R), i.e. the time it took the mouse to enter the darkened compartment, was measured. […]
# [3] = tested on: Aβ25-35 oligomer-intoxicated mice; experiment: Passive avoidance test, symptomatic treatment; conditions: symptomatic design; for improvement in cognitive impairment in the passive avoidance test, effective doses: doses 0.1, 0.3, 1.0, 3 and 10 mg/Kg i.p.; for aggravating effect on amnestic symptoms in the passive avoidance test: intoxicated mice, memantine at 10 mg/Kg
# Description: The test compounds were tested for their ability to decrease the cognitive symptoms of Aβ25-35 oligomer-induced neurodegeneration, i.e. their ability to provide symptomatic anti-amnestic treatment (FIGS. 1A and 1B). In brief, to test the symptomatic effect of the test compounds, they were administered 8 days after the icy injection of the Aβ25-35 oligomers, 30 minutes before the YMT and PAT memory tests were conducted or 30 minutes before the test, but after the training session, in the case of the MWT or ORT (FIG. 1A). The Hamlet Test® (FIG. 1B) involves a 2-week training session (4 hr/day) followed by a test (max. 10 min) under water deprivation conditions and under normal conditions; the Aβ25-35 peptide is injected after this first test. After one week, the compounds are administered and a second test under water deprivation conditions and under normal conditions is performed 30 min after injection. This test measures spatial-temporal disorientation, a major warning sign in Alzheimer's disease (Crouzier et al., 2018).
# as §1, with “test. The attrition rate was routinely 5% (Meunier et al., 2006, 2013; Villard et al., 2009, 2011). A mouse with impaired memory abilities will have a lower STL-R than a mouse with normal abilities.” for “test.”
Compound,Latency (non-intoxicated mice) [s],"restoring Alt % in the Y-maze test, effective doses [1]","protective effect on latency in the passive avoidance test, effective doses [2]","improvement in cognitive impairment in the passive avoidance test, effective doses [3]",aggravating effect on amnestic symptoms in the passive avoidance test [3]
"NC12CC3CC(C1)CC(CCF)(C3)C2 [FENM, 3-(2-fluoroethyl)adamantan-1-amine]",183.0 ± 38.4,effective at all doses tested from 0.1 mg/Kg,procured neuroprotection as regards memory for all doses tested from 0.1 mg/Kg i.p. up to and including 3 mg/Kg,effective at 0.1; 0.3 and 1 mg/Kg,does not exert an aggravating effect on amnestic symptoms
"CC12CC3CC(C)(C1)CC(N)(C3)C2 [memantine, 3,5-Dimethyl-1-adamantanamine, reference compound]",56.0 ± 31.1,only effective at 0.3 mg/Kg,only observed at two of the doses tested (0.1 and 1 mg/Kg i.p.),significant improvement in cognitive impairment by memantine was observed at the 0.3 mg/Kg memantine dose only,worsens the cognitive symptoms of intoxicated mice when injected at 10 mg/Kg
